Assay [1] deals with T1, ICE (Homo sapiens, UniProt P29466).
T1 sequence (P29466 120-297 limits assumed): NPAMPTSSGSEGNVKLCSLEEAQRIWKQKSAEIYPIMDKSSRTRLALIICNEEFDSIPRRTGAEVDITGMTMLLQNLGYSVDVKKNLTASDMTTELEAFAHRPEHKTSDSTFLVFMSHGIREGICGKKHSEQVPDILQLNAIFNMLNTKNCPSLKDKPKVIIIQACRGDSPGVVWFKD
T1 sequence (P29466 317-404 limits assumed): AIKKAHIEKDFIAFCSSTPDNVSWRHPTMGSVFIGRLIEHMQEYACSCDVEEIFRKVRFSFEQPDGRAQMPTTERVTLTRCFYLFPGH
As to the kind of experiment: Enzyme assay with UV-visible substrate (visible ICE assay, Succinyl-Tyr-Val-Ala-Asp-pNitroanilide). Format: biochemical. As to conditions: Table 17. In a few lines:
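ICE preincubated with inhibitor in DMSO for 15 min at room temperature, then Suc-Tyr-Val-Ala-Asp-pNA added. pNA release read at 405-603 nm for 20 min at 37 °C, rate from linear fit in mOD/min. Ki and inhibition mode from fits of rates at varying inhibitor concentrations to standard kinetic equations.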

The test system of assay [2] is IL-1β, human whole blood. As to the kind of experiment: Whole blood assay for IL-1β production. In kind it is cell-based. As to conditions: Table 17, read-out: Whole human blood IC50. An outline of the steps: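 IL-1β was quantified by ELISA in plasma diluted 1:200. The plasma came from EDTA-anticoagulated human whole blood incubated at 30 °C for 16-18 h with LPS (final 5.0 ng/ml) plus a saline serial dilution of compound. Controls were no-LPS, no-inhibitor and highest-vehicle.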

The test system of assay [3] is IL-1β production, LPS-challenged mice. As to the kind of experiment: In vivo acute assay for efficacy as anti-inflammatory agent: LPS-induced IL-1β production in mice. Set-up: species or system mouse. The note with it: LPS challenged mice, compound PO, 50 mg/kg; for inhibition at 50 mg/kg: Mus musculus, po, read-out: percent inhibition of IL-1β production. On the procedure:
In Vivo Acute Assay for Efficacy as Anti-Inflammatory Agent
LPS-Induced IL-1β Production.
Efficacy of 214e and 217e was evaluated in CD1 mice (n=6 per condition) challenged with LPS (20 mg/kg IP). […] Blood was collected seven hours after LPS challenge. Serum IL-1β levels were measure by ELISA. […] Similar results were obtained in a second experiment. […] However, a clear dose response was not apparent.
Compounds 214e and 217e (50 mg/kg) were also administered by oral gavage to assess absorption.
The efficacy of analogs of 214e were also evaluated in LPS challenged mice after IP administration (FIG. 9) and PO administration (FIG. 10).
[…] The protocol is described in Example 7.

Assay [4] deals with IL-1β, human peripheral blood mononuclear cells (PBMC). As to the kind of experiment: PBMC cell assay: IL-1β assay with human PBMC or enriched adherent mononuclear cells, LPS-stimulated. In kind it is cell-based. The note with it: Table 17. In a few lines: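 Mature IL-1β is measured by ELISA in supernatants after 16–18 hr at 37 °C, 5% CO2, with LPS (5 ng/ml final) and test compound (0.1% DMSO final). Cells are human PBMC (6×10^6 cells/ml) or plate-adherent mononuclear cells (2.5−3.0×10^5 per well), and the 5–6 compound concentrations span the ICE Ki.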

Where [5] appears, read: 0 h, administered 0 h relative to time of LPS challenge.
The mark [6] stands for this setting: 2 h, administered −2 h relative to time of LPS challenge.
The mark [7] stands for this setting: administered 0 h relative to time of LPS challenge.
The mark [8] stands for this setting: administered −2 h relative to time of LPS challenge.

Each structure is given as a SMILES string. Read-outs that look alike come from different tables or passages of the source. A value given as a limit tells only on which side of the number the result lay.

From patent publication US20120165319A1, “INHIBITORS OF INTERLEUKIN-1 BETA CONVERTING ENZYME” (VERTEX PHARMACEUTICALS INCORPORATED, priority 1995, published 2012) come the findings set out here.

One may read the Ki as the equilibrium dissociation constant of an inhibitor or competing ligand from its target. A word on the IC50: it is the concentration that inhibits the measured activity by half. One may read the inhibition as the drop in the measured response relative to a control, in per cent. In assay [1], `CCOC(=O)CC(=COC(C)=O)NC(=O)[C@@H]1CCCN2C(=O)CC[C@H](NC(=O)c3ccccc3)C(=O)N12` [Compound 2100j, [3S(1S,9S)]3-(9-Benzoylamino-6,10-dioxo-1,2,3,4,7,8,9,10-octahydro-6H-pyridazino[1,2-a][1,2]diazepine-1-carboxamido)-4-acetoxy-3-butenoic acid ethyl ester] had a Ki of 30 µM. Also, in assay [2] (Homo sapiens), the IC50 was determined as 12 µM. In addition, the inhibition at 50 mg/kg was 0% in assay [3] (setting [5]); 33% in assay [3] (1 h, administered +1 h relative to time of LPS challenge); 41% in assay [3] (1 h, administered −1 h relative to time of LPS challenge); 48% in assay [3] (setting [6]).

For the compound `CC(=O)Nc1cccc(C(=O)N[C@H]2CCC(=O)N3CCC[C@@H](C(=O)N[C@H]4CC(=O)OC4OCc4ccccc4)N3C2=O)c1` (mixture of isomers) [Compound 213o, [1S,9S(2RS,3S)]9-[(3-Acetamido)benzamido]-N-(2-benzyloxy-5-oxotetrahydrofuran-3-yl)-6,10-dioxo-1,2,3,4,7,8,9,10-octahydro-6H-pyridazino[1,2-a][1,2]diazepine-1-carboxamide], the IC50 was 5 µM in assay [4] and 3.3 µM in assay [2]. Besides, the “percent inhibition of IL-1β production” value in assay [3] (setting [7]) came out at 8%; in assay [3] (setting [8]), 4%.

For the compound `CCOC1OC(=O)C[C@@H]1NC(=O)[C@@H]1CCCN2C(=O)CCN(NC(=O)c3ccc4c(c3)OCO4)C(=O)N12` (stereo partly drawn) [Compound 528, [4S(2RS,3S)]6,10-Dioxo-N-(2-ethoxy-5-oxotetrahydrofuran-3-yl)-7-(3,4-methylenedioxybenzoylamino)-1,2,3,4,7,8,9,10-octahydro-6H-pyridazino[1,2-a][1,2,4]triazepine-4-carboxamide], in assay [2] (Homo sapiens), the IC50 came out at 2.2 µM. Besides, the inhibition at 50 mg/kg in assay [3] (setting [5]) came to 67%; in assay [3] (setting [6]) it was 25%.

Turning to `CCOC1OC(=O)C[C@@H]1NC(=O)[C@@H]1CCCN2C(=O)CC[C@H](NC(=O)c3cc(Cl)c(O)c(Cl)c3)C(=O)N12` (stereo partly drawn) [Compound 550k, [1S,9S(2RS,3S)]9-[(3,5-Dichloro-4-hydroxybenzoyl)amino]-6,10-dioxo-1,2,3,4,7,8,9,10-octahydro-N-(2-ethoxy-5-oxotetrahydrofuran-3-yl)-6H-pyridazino[1,2-a][1,2]diazepine-1-carboxamide], the IC50 in assay [2] (Homo sapiens) came out at 3 µM. In addition, the inhibition at 50 mg/kg in assay [3] (setting [5]) was determined as 34%; in assay [3] (setting [6]) it was 36%.

Turning to `CCOC1OC(=O)C[C@@H]1NC(=O)[C@@H]1CCCN2C(=O)CC[C@H](NC(=O)c3ccc(N)c(Cl)c3)C(=O)N12` (stereo partly drawn) [Compound 550h, [1S,9S(2RS,3S)]9-[(3-Chloro-4-aminobenzoyl)amino]-6,10-dioxo-1,2,3,4,7,8,9,10-octahydro-N-(2-ethoxy-5-oxotetrahydrofuran-3-yl)-6H-pyridazino[1,2-a][1,2]diazepine-1-carboxamide], the IC50 in assay [2] (Homo sapiens) was 1.8 µM. The inhibition at 50 mg/kg in assay [3] (setting [5]) is 73%; in assay [3] (setting [6]), 55%.

Turning to `CCOC1OC(=O)C[C@@H]1NC(=O)[C@@H]1CCCN2C(=O)CC[C@H](NC(=O)c3cccc(NC(C)=O)c3)C(=O)N12` (stereo partly drawn) [Compound 550n, [1S,9S (2RS,3S)]9-(3-Acetamido) benzoylamino-6,10-dioxo-N-(2-ethoxy-5-oxo-tetrahydrofuran-3-yl)-1,2,3,4,7,8,9,10-octahydro-6H-pyridazino[1,2-a][1,2]diazepine-1-carboxamide], the IC50 in assay [2] (Homo sapiens) is less than 0.3 µM. Moreover, the values for the inhibition at 50 mg/kg in assay [3] (setting [5]) and in assay [3] (setting [6]) were 65% and 19%, respectively.

With `O=C1C[C@H](NC(=O)[C@@H]2CCCN3C(=O)CC[C@H](NC(=O)c4ccc(O)cc4)C(=O)N23)C(OCc2ccccc2)O1` (mixture of isomers) [Compound 213p, [1S,9S (2RS,3S)]N-(2-Benzyloxy-5-oxotetrahydrofuran-3-yl)-6,10-dioxo-9-(4-hydroxybenzoyl)amino-1,2,3,4,7,8,9,10-octahydro-6H-pyridazino[1,2-a][1,2]diazepine-1-carboxamide], in assay [2], the IC50 is less than 0.3 µM. Moreover, the “percent inhibition of IL-1β production” value in assay [3] (setting [7]) is given as 29%; in assay [3] (setting [8]), 21%.

Turning to `CCOC1OC(=O)C[C@@H]1NC(=O)[C@@H]1CCCN2C(=O)CC[C@H](NC(=O)c3ccc(OC)cc3)C(=O)N12` (stereo partly drawn) [Compound 550i, [1S,9S(2RS,3S)]9-[(4-Methoxybenzoyl)amino]-6,10-dioxo-1,2,3,4,7,8,9,10-octahydro-N-(2-ethoxy-5-oxotetrahydrofuran-3-yl)-6H-pyridazino[1,2-a][1,2]diazepine-1-carboxamide], the IC50 in assay [2] (Homo sapiens) was 1.4 µM. The inhibition at 50 mg/kg is 23% in assay [3] (setting [5]) and -10% in assay [3] (setting [6]).

Turning to `CCOC1OC(=O)C[C@@H]1NC(=O)[C@@H]1CCCN2C(=O)CC[C@H](NC(=O)c3ccc(O)cc3)C(=O)N12` (stereo partly drawn) [Compound 550p, [1S,9S(2RS,3S)]6,10-Dioxo-N-(2-ethoxy-5-oxotetrahydrofuran-3-yl)-9-(4-hydroxybenzoyl)amino-1,2,3,4,7,8,9,10-octahydro-6H-pyridazino[1,2-a][1,2]diazepine-1-carboxamide], the IC50 in assay [2] (Homo sapiens) amounted to 2.9 µM. In addition, the values for the inhibition at 50 mg/kg in assay [3] (setting [5]) and in assay [3] (setting [6]) were 60% and 30%, respectively.

For `O=C1C[C@H](NC(=O)[C@@H]2CCCN3C(=O)CC[C@H](NC(=O)c4nccc5ccccc45)C(=O)N23)C(OCc2ccccc2)O1` (mixture of isomers) [Compound 213y, [1S,9S(2RS,3S)]N-(2-Benzyloxy-5-oxotetrahydrofuran-3-yl)-6,10-dioxo-9-(isoquinolin-1-oylamino)-1,2,3,4,7,8,9,10-octahydro-6-H-pyridazino[1,2-a][1,2]diazepine-1-carboxamide], in assay [2], the IC50 was found to be 0.93 µM. Also, the figures for the “percent inhibition of IL-1β production” value in assay [3] (setting [7]) and in assay [3] (setting [8]) were 50% and 29%, respectively.

For the compound `O=C1C[C@H](NC(=O)[C@@H]2CCCN3C(=O)CC[C@H](NC(=O)c4cc5ccccc5[nH]4)C(=O)N23)C(OCc2ccccc2)O1` (mixture of isomers) [Compound 213q, [1S,9S(2RS,3S)]N-(2-Benzyloxy-5-oxotetrahydrofuran-3-yl)-6,10-dioxo-9-(indol-2-oylamino)-1,2,3,4,7,8,9,10-octahydro-6H-pyridazino[1,2-a][1,2]diazepine-1-carboxamide], the IC50 in assay [2] was less than 0.3 µM. Also, the “percent inhibition of IL-1β production” value in assay [3] (setting [7]) came out at 91%; in assay [3] (setting [8]) it was 17%.

For `O=C1C[C@H](NC(=O)[C@@H]2CCCN3C(=O)CC[C@H](NC(=O)c4cc(Cl)c(O)c(Cl)c4)C(=O)N23)C(OCc2ccccc2)O1` (stereo partly drawn) [Compound 213k, [1S,9S(2RS,3S)]9-[(3,5-Dichloro-4-hydroxybenzoyl)amino]-6,10-dioxo-1,2,3,4,7,8,9,10-octahydro-N-(2-Benzyloxy-5-oxotetrahydrofuran-3-yl)-6H-pyridazino[1,2-a][1,2]diazepine-1-carboxamide], the IC50 in assay [2] (Homo sapiens) is 2 µM. The inhibition at 50 mg/kg came to 68% in assay [3] (setting [5]) and 0% in assay [3] (setting [6]).
